{
  "source": "patent US9408831B2",
  "about": "“Methods for treating respiratory viral infection” (Celgene Corporation, priority 2010, dated 2016)",
  "assay_type_in_all_cases": "in vivo, mice",
  "key": {"[1]": {"test_system": "influenza X31 strain (H3N2)", "conditions": "day 7"}, "[2]": {"test_system": "influenza X31 strain (H3N2)", "assay": "Total viable cell counts in the airway (BAL) and lung tissue, trypan blue exclusion", "conditions": "100 μg/mouse i.p. daily"}, "[3]": {"test_system": "influenza X31 strain (H3N2)"}, "[4]": {"test_system": "influenza X31 strain (H3N2)", "assay": "T cell recruitment (CD4, CD8 surface markers) by flow cytometry"}, "[5]": {"test_system": "influenza X31 strain (H3N2)", "conditions": "lung homogenates, FIG. 9"}, "[6]": {"test_system": "influenza X31 strain (H3N2)", "assay": "Macrophages and neutrophils in airspaces and lung by flow cytometry"}, "[7]": {"conditions": "early (day 3), 100 μg/mouse i.p. daily, FIG. 5"}, "[8]": {"conditions": "day 7, between the animal groups"}},
  "note": "“Also recorded” adds a separate entry of the source.",
  "data": [
    {"smiles": "COc1ccc(C(CC(N)=O)N2Cc3ccccc3C2=O)cc1OC", "note": "(stereo not shown) [Compound 1]", "values": [
      {"measurement": "CD8+ T cells cytokine expression", "setting": "[1]", "value": "remained unchanged"},
      {"measurement": "CD4+ T cells producing IFNγ in the lung tissue", "setting": "[1]; vs untreated mice and vehicle controls, FIG. 7", "value": "partial reduction"},
      {"measurement": "cellular infiltrate into the airway (BAL), total viable cells", "setting": "[2]; […], FIG. 2", "value": "significantly reduced the cellular infiltrate"},
      {"measurement": "cell counts in the airway (BAL fluid) relative to infected mice not treated", "setting": "[2]; day 3", "value": "less than half"},
      {"measurement": "reduction of cellular infiltrate in the lung parenchyma", "setting": "[2]; day 3 or day 7, FIG. 2", "value": "not observed"},
      {"measurement": "reduction of cellular infiltrate into the airway (BAL)", "setting": "[2]; day 7, FIG. 2", "value": "not observed"},
      {"measurement": "weight loss (percent original weight)", "setting": "[3]; 100 μg/mouse i.p. daily days 0-6, vs vehicle control and untreated, FIG. 1", "value": "significantly reduced weight loss"},
      {"measurement": "visible health appearance", "setting": "[3]; controls hunched and cachexic on day 5", "value": "appeared visibly in better health"},
      {"measurement": "CD8+ T cells", "setting": "[4]; any time point analyzed (day 3, day 7)", "value": "No difference"},
      {"measurement": "early CD4+ T cell recruitment to the airways (BAL)", "setting": "[4]; day 3, 100 μg/mouse i.p. daily, FIG. 5", "value": "reduced"},
      {"measurement": "T cell recruitment / later T cell populations (CD4)", "setting": "[4]; day 7, airway and lung, FIG. 6", "value": "no differences; also recorded: did not affect later T cell populations"},
      {"measurement": "CD4+ T cells in the lung parenchyma", "setting": "[4]; [7]", "value": "corresponding accumulation"},
      {"measurement": "T cell recruitment", "setting": "[4]; [7]", "value": "reduced T cell recruitment; also recorded: affected early T cell recruitment"},
      {"measurement": "recovered viral titer", "setting": "[5]; early stages of viral replication (day 3)", "value": "blunted the recovered viral titer"},
      {"measurement": "peak viral load", "setting": "[5]; 100 μg/mouse i.p. daily", "value": "reduced peak viral load"},
      {"measurement": "proportion of macrophages among cells recovered from the airspaces", "setting": "[6]; […], 100 μg/mouse i.p. daily, FIG. 3", "value": "higher proportion"},
      {"measurement": "neutrophils (CD11c+ and Ly6g+) in the airspaces, reduction in total cells", "setting": "[6]; day 3, 100 μg/mouse i.p. daily, FIG. 4", "value": "primarily associated with neutrophils"},
      {"measurement": "number of macrophages, all sites", "setting": "[6]; [8]", "value": "no significant differences"},
      {"measurement": "number of neutrophils, all sites", "setting": "[6]; [8]", "value": "no significant differences"}
    ]}
  ]
}
